{"source": "patent US4463003A", "about": "“Cephem compounds” (Fujisawa Pharmaceutical Co., Ltd., priority 1982, dated 1984)", "key": {"Proteus mirabilis 18": {"system": "Proteus mirabilis 18", "assay": "Minimal inhibitory concentrations, two-fold agar-plate dilution method", "assay_type": "cell-based", "conditions": "HI-agar, 37° C., 20 hours", "description": "(§1) (A) Minimal inhibitory concentrations In vitro antibacterial activity was determined by the two-fold agar-plate dilution method as described below. One loopful of an overnight culture of each test strain in Trypticase-soy broth (10^8 viable cells per ml) was streaked on heart infusion agar (HI-agar) containing graded concentrations of representative test compound, and the minimal inhibitory concentration (MIC) was expressed in terms of μg/ml after incubation at 37° C. for 20 hours."}, "Proteus vulgaris 2": {"system": "Proteus vulgaris 2", "assay": "Minimal inhibitory concentrations, two-fold agar-plate dilution method", "assay_type": "cell-based", "conditions": "HI-agar, 37° C., 20 hours", "description": "as §1"}, "[1]": {"assay": "Urinary excretion after oral administration in rats", "assay_type": "in vivo", "conditions": "rat, urine, 100 mg/kg, 0 to 24 hours, bioassay, read-out: Urinary recovery in 24 hours (%)", "experimental": "Urine of rats was collected with a urine collector at 0 to 6, and 6 to 24 hours after oral administration of 100 mg/kg of the test antibiotic. The antibiotic levels in the urine samples were bioassayed with the standard solution prepared with M/15 phosphate buffer (pH 7.0) and the urinary recovery in 24 hours was calculated."}, "in vivo": {"assay": "in vivo", "conditions": "rat, po, 100 mg/kg", "experimental": "Rats anesthetized with pentobarbital were fixed in supine position, and a polyethylene cannula was inserted into the bile duct. Bile samples were collected at 0 to 3, 3 to 6, and 6 to 24 hours after oral administration of 100 mg/kg of the test antibiotic. The antibiotic levels in the bile samples were bioassayed with the standard solution prepared with M/15 phosphate buffer (pH 7.0) and the biliary recovery in 24 hours were calculated."}}}
{"compound": "O=C(O)CO/N=C(\\C(=O)NC1C(=O)N2C(C(=O)O)=C(CSc3ccc4nnnn4n3)CSC12)c1ncsn1", "note": "(stereo not drawn) [Compound .circle.A, 7-[2-Carboxymethoxyimino-2-(1,2,4-thiadiazol-3-yl)acetamido]-3-(tetrazolo[1,5-b]pyridazin-6-yl)thiomethyl-3-cephem-4-carboxylic acid (syn isomer)]", "values": [{"measurement": "MIC", "setting": "Proteus mirabilis 18", "result": 0.05, "unit": "µg/mL"}, {"measurement": "MIC", "setting": "Proteus vulgaris 2", "result": 0.05, "unit": "µg/mL"}, {"measurement": "dose excreted at 24 h", "setting": "[1]", "result": 10.6, "unit": "%"}, {"measurement": "dose excreted at 24 h", "setting": "in vivo", "result": 12.6, "unit": "%"}]}
